The results in this text go back to patent US8835378B2, “Multi-domain amphipathic helical peptides and methods of their use” (The United States of America as represented by the …, priority 2004, dated 2014).

“Also recorded” adds a separate entry of the source. Where a SMILES comes first, the peptide text is derived from it. [ ]: non-standard residue; d: D form.

Data set [1] has as its system ABCA1 cells. Nature of the data set: LDH release from ABCA1 cells. As to conditions: 40 μg/ml for 18 hours. Type of data set: cell-based, human. The method, then: (§1) Cell fixation was performed by a 10 minute treatment with 3% paraformaldehyde in phosphate buffered saline (PBS), followed by three washes with blank media. Lactate dehydrogenase (LDH) release from cells into the media was measured enzymatically (Roche Diagnostics, Indianapolis, Ind.) and expressed, after subtraction of LDH released into blank media, as the percentage of total cell LDH. Total cell LDH was determined after cell solubilization with 1% Triton X-100.
(§2) Incubation of the cells with L-37pA and D-37pA at the maximum concentration and time used for the efflux studies (40 μg/ml for 18 hours) did, however, consistently result in the release of a small amount of LDH from both cell lines (control cells: L-37pA (6.1%±0.2), D-37pA (6.6%±0.1); ABCA1 cells: L-37pA (4.3%±0.04), D-37pA (5.7%±0.1)).

A further data set has as its system control cells. Nature of the data set: LDH release from control cells. Type of data set: cell-based, human. Conditions: 40 μg/ml for 18 hours. The method, then:
as §1, §2

The subject of data set [2] is ABCA1 cells and control cells. Nature of the data set: Cell morphology by light microscopy during efflux experiments. The class given is cell-based, human.
Data set [3] has as its system ABCA1 cells. Nature of the data set: Two-step competitive binding of radiolabled L-37pA to ABCA1 cells. More on the design: species or system human. As to conditions: 8 μM, the maximum concentration tested; 4° C. The procedure: FIGS. 7A-7B are a pair of graphs illustrating the competitive binding of L-37pA peptide to ABCA1 transfected cells and control cells. ABCA1 cells (FIG. 7A) and control cells (FIG. 7B) were incubated for 3 hours at 4° C. with the indicated concentration of the competitor proteins [L-37pA (triangle), D-37pA (open square), apoA-I (closed circle), L2D-37pA (star), and L3D-37pA (open circle)] and were then washed and incubated for 1 hour at 4° C. with 1 μg/ml of radiolabled L-37pA peptide. Results are expressed as the mean of triplicates±1 SD.
The L-37pA peptide was labeled with ^125I using iodine monochloride. Confluent cells grown on 12-well plates were incubated for 3 hours at 4° C. with the indicated concentration of the unlabeled competitor peptide in αMEM media plus 10 mg/ml of BSA (FIG. 7). […] Cells were washed three times, and cell bound counts were determined after solubilization with 0.1 N NaOH.
A two-step sequential competitive binding assay was performed in order to prevent any potentially interfering interaction of the radiolabled peptide with the competitor proteins (Mendez et al., J. Clin. Invest. 94:1698-1705, 1994). The cells were first incubated with the competitor proteins for 3 hours, washed, and then the cell binding of the radiolabled L-37 peptide was measured. […]

The subject of data set [4] is Tangier disease fibroblast cell line with a truncated non-functional ABCA1 transporter. Nature of the data set: Cholesterol efflux from Tangier disease fibroblasts. Type of data set: cell-based, human. Conditions: 10 μg/ml, 18 hour. The procedure:
(§3) FIG. 5 is a graph illustrating ABCA1-independent efflux of cholesterol from Tangier disease fibroblasts. Normal skin fibroblasts (open bars) and Tangier disease skin fibroblasts (solid bars) were examined for their ability to efflux cholesterol over an 18 hour period when treated with 10 μg/ml apoA-I (A), 10 μg/ml L-37pA (L), and 10 μg/ml D-37pA (D). Results are expressed as the mean of triplicates±1 SD.
(§4) In order to confirm that the residual lipid efflux from the control cells to L-37pA and D-37pA (see FIG. 1) was not due to a low level of endogenous ABCA1, a Tangier disease fibroblast cell line with a truncated non-functional ABCA1 transporter (Remaley et al., Proc. Natl. Acad. Sci. USA 96:12685-12690, 1999) was evaluated for lipid efflux (FIG. 5). […] Thromb. Vasc. Biol. 17:1813-1821, 1997.

In data set [5] the test system is HeLa cells stably transfected with human ABCA1 cDNA (ABCA1 cells). Nature of the data set: Cholesterol and phospholipid efflux from ABCA1 transfected cells. The class given is cell-based. The method, then:
(§5) Percentage efflux was calculated after subtracting the radioactive counts in the blank media (αMEM plus 1 mg/ml of BSA), and expressed as the percent of total radioactive counts removed from the cells during the efflux period.
as §1

Data set [6] deals with HeLa cells transfected with only a hygromycin-resistant control plasmid (control cells). Nature of the data set: Cholesterol and phospholipid efflux from control cells. Conditions: for cholesterol and phospholipid efflux from control cells (in words): 18 hours. Type of data set: cell-based, human. The procedure: as §5, §1
The subject of the next data set is Normal skin fibroblasts. Nature of the data set: Cholesterol efflux from normal skin fibroblasts. Type of data set: cell-based, human. As to conditions: 10 μg/ml, 18 hour. The procedure:
as §3, §4

Regarding `CC(C)C[C@H](NC(=O)[C@H](Cc1c[nH]c2ccccc12)NC(=O)[C@H](CC(=O)O)NC(=O)[C@@H]1CCCN1C(=O)[C@H](Cc1ccccc1)NC(=O)[C@H](C)NC(=O)[C@H](CCC(=O)O)NC(=O)[C@H](CCCCN)NC(=O)[C@H](CC(C)C)NC(=O)[C@H](CCCCN)NC(=O)[C@H](CCC(=O)O)NC(=O)[C@H](C)NC(=O)[C@@H](NC(=O)[C@H](CCCCN)NC(=O)[C@H](CC(=O)O)NC(=O)[C@H](Cc1ccc(O)cc1)NC(=O)[C@H](Cc1ccccc1)NC(=O)[C@H](C)NC(=O)[C@H](CCCCN)NC(=O)[C@H](CC(C)C)NC(=O)[C@H](Cc1c[nH]c2ccccc12)NC(=O)[C@@H](N)CC(=O)O)C(C)C)C(=O)N[C@@H](CCCCN)C(=O)N[C@@H](C)C(=O)N[C@@H](Cc1ccccc1)C(=O)N[C@@H](Cc1ccc(O)cc1)C(=O)N[C@@H](CC(=O)O)C(=O)N[C@@H](CCCCN)C(=O)N[C@H](C(=O)N[C@@H](C)C(=O)N[C@@H](CCC(=O)O)C(=O)N[C@@H](CCCCN)C(=O)N[C@@H](CC(C)C)C(=O)N[C@@H](CCCCN)C(=O)N[C@@H](CCC(=O)O)C(=O)N[C@@H](C)C(=O)N[C@@H](Cc1ccccc1)C(=O)O)C(C)C` [L-37pA] (H-DWLKAFYDKVAEKLKEAFPDWLKAFYDKVAEKLKEAF-OH; N-terminus and C-terminus assumed), the “LDH release from ABCA1 cells (percentage of total cell LDH)” value in the data set on ABCA1 cells [1] is reported as 4.3%±0.04. Moreover, the “LDH release from control cells (percentage of total cell LDH)” value in the data set with control cells was 6.1%±0.2.

With apolipoprotein A-I [apoA-I], in data set [2], the “effect on cell morphology” value is given as “no morphologic effect was observed”. Besides, the “binding of labeled L-37pA to ABCA1 cells blocked by competitor” value in the data set on ABCA1 cells [3] was “approximately 30%”. Further, the “cholesterol efflux from Tangier disease fibroblasts” value in data set [4] is “did not efflux significant amounts of cholesterol”. In data set [5] (10 μg/ml), the “time at which cholesterol efflux from ABCA1 cells was first detectable” value was determined as 2 h. Besides, the “effect of fixation of ABCA1 cells on cholesterol efflux (in words)” value in data set [5] (10 μg/ml, 18 hours, fixation with 3% paraformaldehyde) was “completely blocked”. Further, the “cholesterol and phospholipid efflux from ABCA1 cells (in words)” value in data set [5] (18 hours) was “do so after transfection with ABCA1”. In data set [5] (18 hours), the “protein concentration at which lipid efflux began to show saturation” value was about 10 µg/mL. Moreover, in data set [5] (corresponds to 10 μg/ml), the “molar concentration at which lipid efflux began to show saturation” value amounted to 0.36 µM. In data set [6] (10 μg/ml, 30 hour efflux period), the “cholesterol efflux time course from control cells (in words)” value is given as “no significant increase above background”. Further, the “cholesterol and phospholipid efflux from control cells (in words)” value in data set [6] is “do not efflux significant amounts of cholesterol and phospholipid; also recorded: unable”; in data set [6] (listed as apoA-1) it was “did not cause lipid efflux from control cells”. In the data set on Normal skin fibroblasts, the “cholesterol efflux from normal fibroblasts” value is “effluxed cholesterol”.

On to `CC(C)C[C@@H](NC(=O)[C@@H](Cc1c[nH]c2ccccc12)NC(=O)[C@H](N)CC(=O)O)C(=O)N[C@H](CCCCN)C(=O)N[C@H](C)C(=O)N[C@H](Cc1ccccc1)C(=O)N[C@H](Cc1ccc(O)cc1)C(=O)N[C@H](CC(=O)O)C(=O)N[C@H](CCCCN)C(=O)N[C@@H](C(=O)N[C@H](C)C(=O)N[C@H](CCC(=O)O)C(=O)N[C@H](CCCCN)C(=O)N[C@H](CC(C)C)C(=O)N[C@H](CCCCN)C(=O)N[C@H](CCC(=O)O)C(=O)N[C@H](C)C(=O)N[C@H](Cc1ccccc1)C(=O)N1CCC[C@@H]1C(=O)N[C@H](CC(=O)O)C(=O)N[C@H](Cc1c[nH]c2ccccc12)C(=O)N[C@H](CC(C)C)C(=O)N[C@H](CCCCN)C(=O)N[C@H](C)C(=O)N[C@H](Cc1ccccc1)C(=O)N[C@H](Cc1ccc(O)cc1)C(=O)N[C@H](CC(=O)O)C(=O)N[C@H](CCCCN)C(=O)N[C@@H](C(=O)N[C@H](C)C(=O)N[C@H](CCC(=O)O)C(=O)N[C@H](CCCCN)C(=O)N[C@H](CC(C)C)C(=O)N[C@H](CCCCN)C(=O)N[C@H](CCC(=O)O)C(=O)N[C@H](C)C(=O)N[C@H](Cc1ccccc1)C(=O)O)C(C)C)C(C)C` [D-37pA] (H-[dD][dW][dL][dK][dA][dF][dY][dD][dK][dV][dA][dE][dK][dL][dK][dE][dA][dF][dP][dD][dW][dL][dK][dA][dF][dY][dD][dK][dV][dA][dE][dK][dL][dK][dE][dA][dF]-OH; N-terminus and C-terminus assumed), for which the “LDH release from ABCA1 cells (percentage of total cell LDH)” value in the data set with ABCA1 cells [1] is recorded as 5.7%±0.1. For the same molecule, in the data set with control cells, the “LDH release from control cells (percentage of total cell LDH)” value was 6.6%±0.1.
